Residues, ends and D or L forms follow the SMILES beside them.
What was measured:
[1] = tested on: rat brain microvascular endothelial cells (RBMECs); assay: Transendothelial electrical resistance (TEER) in the BBB in vitro model; type: cell-based; details: RBMEC monolayers
[2] = tested on: rat brain microvascular endothelial cells (RBMECs)
PrP(92–99) = PrP(92–99) (Homo sapiens, UniProt P04156); details: pH 7.4
PrP(106–115) = PrP(106–115) (Homo sapiens, UniProt P04156); details: pH 7.4
Aβ(1–16) = details: 1 equiv of TP; EPR; cited from earlier work
Source text: Although Aβ(1–X) species are the most studied, N-truncated Aβ peptides, such as Aβ(4–X) species (Figure 4A), are highly abundant Aβ isoforms detected in both healthy and AD brains.[58]−[60] Although both peptides bind Cu^2+, their coordination properties and reactivities are completely different.

Aβ(1–40) = biological target: T1, Aβ(1–40) (Homo sapiens, UniProt P05067); details: cited from earlier work
T1 construct: impact the mechanism of Cu^2+-induced aggregation of Aβ(1–40)
T1 sequence (P05067 672-711 limits assumed): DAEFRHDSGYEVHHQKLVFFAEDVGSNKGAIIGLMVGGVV
Source text: Scheme 1 TP Holds Therapeutic Potential against AD TP is a tetrapeptide with the sequence MDDWAib. The MD sequence binds Cu^2+ with high affinity (A). […] These findings support a therapeu ...

[3] = tested on: rat brain microvascular endothelial cells (RBMECs); assay: Peptide recovery (HPLC) from apical and basal compartments of the BBB in vitro model; details: peptide alone, apical administration; quantified after 8 and 25 h; HPLC-UV
[4] = BBB in vitro model: primary culture of rat brain microvascular endothelial cells (RBMECs) on inserts, astrocyte-conditioned medium in the basal compartment; details: Wistar rat, up to 25 h

NH2-MDDWAib-Am [TP]
Effect on TEER ([1]; TP alone): no effect
Main degradation product in the BBB model [2]: DDWAib
TP degradation in the BBB model [2]: rapidly degraded
TP passage across the BBB model [2]: cannot cross the BBB without P10
Fraction of Cu2+-PrP(92–99) complex in EPR deconvolution (PrP(92–99); 1 equiv of TP): 40%
Fraction of Cu2+-TP complex in EPR deconvolution (PrP(92–99); 1 equiv of TP): 30%
Fraction of ternary TP-Cu2+-PrP(92–99) complex in EPR deconvolution (PrP(92–99); 1 equiv of TP): 30%
Fraction of Cu2+-TP in EPR simulation (PrP(92–99); 2 equiv of TP): 20%
Fraction of ternary TP-Cu2+-PrP(92–99) complex in EPR simulation (PrP(92–99); 2 equiv of TP): 80%
Fraction of Cu2+-PrP(106–115) complex in EPR deconvolution (PrP(106–115); 1 equiv of TP): 30%
Fraction of Cu2+-TP complex in EPR deconvolution (PrP(106–115); 1 equiv of TP): 50%
Fraction of ternary TP-Cu2+-PrP(106–115) complex in EPR deconvolution (PrP(106–115); 1 equiv of TP): 20%
Fraction of Cu2+-TP in EPR simulation (PrP(106–115); 2 equiv of TP): 40%
Fraction of ternary TP-Cu2+-PrP(106–115) complex in EPR simulation (PrP(106–115); 2 equiv of TP): 60%
Removal of Cu2+ from Cu2+-Aβ(1–16) (Aβ(1–16)): removes the metal ion
Effect on Cu2+-induced aggregation of Aβ(1–40) (Aβ(1–40)): impacts the Cu^2+-induced aggregation of Aβ(1–40)
Detection in apical and basal compartments [3]: detected in the apical but not in the basal compartment

CC(C)C[C@H](NC(=O)[C@@H](N)CCCCN)C(=O)N[C@@H](Cc1ccc(O)cc1)C(=O)O [P10] (H-Lys-Leu-Tyr-OH)
Decrease of TEER with respect to control monolayers ([1]; P10 alone, CellZscope continuous measurement): approximately 30%
Decrease of TEER with respect to control monolayers ([1]; P10 together with TP): approximately 30%

NH2-MDDWAib-Am
cleaved bond [4]: Met1-Asp2, major, 3.5 h
